Measured values reported in the NIST ThermoML archive (doi:10.1007/s10765-010-0719-7).
± gives the expanded uncertainty stated by the source.

How the values were obtained:
[1] = 101 kPa, Liquid; for mass density: Pycnometric method
[2] = refractive index (Na D-line) (dimensionless); conditions: 303.15 K; 101.33 kPa; Liquid; Standard Abbe refractometry
[3] = xn = mol fraction of the nth substance listed; conditions: 101 kPa, Liquid; for mass density: Pycnometric method
[4] = refractive index (Na D-line) (dimensionless); xn = mol fraction of the nth substance listed; conditions: 303.15 K, 101 kPa, Liquid, Standard Abbe refractometry

CCCCOCCO [2-butoxyethan-1-ol]
[1]
Conditions	mass density [kg/m3]	speed of sound [m/s]	viscosity [mPa·s]
303.15 K	892 ± 0.6	1288.4 ± 1.3	2.486 ± 0.056
313.15 K	884.2 ± 0.6	–	1.979 ± 0.046
323.15 K	877.5 ± 0.7	–	1.653 ± 0.039

Conditions	refractive index
[2]	1.415 ± 0.0005

CCCCOCCO [2-butoxyethan-1-ol] + CC(C)CCO
[3]
Conditions	mass density, 303.15 K [kg/m3]	mass density, 313.15 K [kg/m3]	mass density, 323.15 K [kg/m3]	speed of sound, 303.15 K [m/s]	viscosity, 303.15 K [mPa·s]	viscosity, 313.15 K [mPa·s]	viscosity, 323.15 K [mPa·s]
x2 = 0	892 ± 0.6	884.2 ± 0.6	877.5 ± 0.7	1288.4 ± 1.3	2.486 ± 0.056	1.979 ± 0.046	1.653 ± 0.039
x2 = 0.1297	882.2 ± 0.6	874.5 ± 0.6	867.7 ± 0.7	1279.8 ± 1.3	2.483 ± 0.056	1.969 ± 0.045	1.623 ± 0.038
x2 = 0.251	872.5 ± 0.6	865.4 ± 0.6	858.2 ± 0.6	1270.3 ± 1.3	2.496 ± 0.056	1.967 ± 0.045	1.629 ± 0.038
x2 = 0.3649	863.1 ± 0.6	856.1 ± 0.6	848.8 ± 0.6	1261.8 ± 1.3	2.514 ± 0.057	1.987 ± 0.046	1.636 ± 0.038
x2 = 0.472	853.9 ± 0.6	847.2 ± 0.6	839.8 ± 0.6	1251.8 ± 1.3	2.557 ± 0.058	1.997 ± 0.046	1.65 ± 0.039
x2 = 0.5728	845 ± 0.6	837.9 ± 0.6	831 ± 0.6	1242.3 ± 1.3	2.594 ± 0.059	2.028 ± 0.047	1.673 ± 0.039
x2 = 0.6679	838.6 ± 0.6	829.5 ± 0.6	822.3 ± 0.6	1233.5 ± 1.3	2.653 ± 0.06	2.067 ± 0.048	1.702 ± 0.04
x2 = 0.7578	827.7 ± 0.6	821 ± 0.6	813.9 ± 0.6	1224.2 ± 1.3	2.748 ± 0.062	2.121 ± 0.049	1.737 ± 0.04
x2 = 0.8428	819.3 ± 0.6	812.5 ± 0.6	805.7 ± 0.6	1215.3 ± 1.3	2.877 ± 0.065	2.2 ± 0.05	1.798 ± 0.042
x2 = 0.9235	811.1 ± 0.6	804.6 ± 0.6	797.6 ± 0.6	1206.4 ± 1.3	3.058 ± 0.068	2.303 ± 0.053	1.851 ± 0.043

[4]
Conditions	refractive index
x2 = 0	1.415 ± 0.0005
x2 = 0.1297	1.4138 ± 0.0005
x2 = 0.251	1.4127 ± 0.0005
x2 = 0.3649	1.4115 ± 0.0005
x2 = 0.472	1.4104 ± 0.0005
x2 = 0.5728	1.4093 ± 0.0005
x2 = 0.6679	1.408 ± 0.0005
x2 = 0.7578	1.4069 ± 0.0005
x2 = 0.8428	1.4058 ± 0.0005
x2 = 0.9235	1.4047 ± 0.0005

CCOCCO [2-ethoxyethan-1-ol]
[1]
Conditions	mass density [kg/m3]	speed of sound [m/s]	viscosity [mPa·s]
303.15 K	919.5 ± 0.6	1301.5 ± 1.3	1.623 ± 0.038
313.15 K	912 ± 0.6	–	1.355 ± 0.032
323.15 K	903.8 ± 0.7	–	1.143 ± 0.028

Conditions	refractive index
[2]	1.4065 ± 0.0005

CCOCCO [2-ethoxyethan-1-ol] + CC(C)CCO
[3]
Conditions	mass density, 303.15 K [kg/m3]	mass density, 313.15 K [kg/m3]	mass density, 323.15 K [kg/m3]	speed of sound, 303.15 K [m/s]	viscosity, 303.15 K [mPa·s]	viscosity, 313.15 K [mPa·s]	viscosity, 323.15 K [mPa·s]
x2 = 0	919.5 ± 0.6	912 ± 0.6	903.8 ± 0.7	1301.5 ± 1.3	1.623 ± 0.038	1.355 ± 0.032	1.143 ± 0.028
x2 = 0.102	906.1 ± 0.6	898.6 ± 0.6	890.5 ± 0.7	1292.4 ± 1.3	1.688 ± 0.039	1.385 ± 0.033	1.169 ± 0.028
x2 = 0.2036	892.9 ± 0.6	885.6 ± 0.6	877.7 ± 0.7	1282.4 ± 1.3	1.761 ± 0.041	1.424 ± 0.034	1.196 ± 0.029
x2 = 0.3047	880.1 ± 0.6	872.9 ± 0.6	865.1 ± 0.7	1272.7 ± 1.3	1.812 ± 0.042	1.469 ± 0.035	1.222 ± 0.029
x2 = 0.4053	867.7 ± 0.6	860.5 ± 0.6	853 ± 0.7	1262.9 ± 1.3	1.892 ± 0.044	1.53 ± 0.036	1.263 ± 0.03
x2 = 0.5055	855.8 ± 0.6	848.7 ± 0.6	841.3 ± 0.6	1251.2 ± 1.3	1.994 ± 0.046	1.604 ± 0.038	1.31 ± 0.031
x2 = 0.6053	844.3 ± 0.6	837.3 ± 0.6	830 ± 0.6	1240.6 ± 1.3	2.124 ± 0.049	1.68 ± 0.039	1.377 ± 0.033
x2 = 0.7046	833.3 ± 0.6	826.4 ± 0.6	819.2 ± 0.6	1229.3 ± 1.3	2.301 ± 0.052	1.812 ± 0.042	1.46 ± 0.034
x2 = 0.8035	822.8 ± 0.6	815.9 ± 0.6	808.8 ± 0.6	1219.2 ± 1.3	2.496 ± 0.056	1.945 ± 0.045	1.566 ± 0.037
x2 = 0.902	812.6 ± 0.6	805.8 ± 0.6	799 ± 0.6	1208.7 ± 1.3	2.807 ± 0.063	2.143 ± 0.049	1.728 ± 0.04

[4]
Conditions	refractive index
x2 = 0	1.4065 ± 0.0005
x2 = 0.102	1.4062 ± 0.0005
x2 = 0.2036	1.4059 ± 0.0005
x2 = 0.3047	1.4055 ± 0.0005
x2 = 0.4053	1.4052 ± 0.0005
x2 = 0.5055	1.4049 ± 0.0005
x2 = 0.6053	1.4046 ± 0.0005
x2 = 0.7046	1.4043 ± 0.0005
x2 = 0.8035	1.404 ± 0.0005
x2 = 0.902	1.4037 ± 0.0005

COCCO [2-methoxyethan-1-ol]
[1]
Conditions	mass density [kg/m3]	speed of sound [m/s]	viscosity [mPa·s]
303.15 K	956.8 ± 0.6	1324.3 ± 1.4	1.55 ± 0.036
313.15 K	946.3 ± 0.7	–	1.288 ± 0.031
323.15 K	937.8 ± 0.7	–	1.082 ± 0.026

Conditions	refractive index
[2]	1.3983 ± 0.0005

COCCO [2-methoxyethan-1-ol] + CC(C)CCO
[3], x2 = 0
Conditions	mass density [kg/m3]	speed of sound [m/s]	viscosity [mPa·s]
303.15 K	956.8 ± 0.6	1324.3 ± 1.4	1.55 ± 0.036
313.15 K	946.3 ± 0.7	–	1.288 ± 0.031
323.15 K	937.8 ± 0.7	–	1.082 ± 0.026

Conditions	refractive index
[4], x2 = 0	1.3983 ± 0.0005

CC(C)CCO [3-methylbutan-1-ol]
[1]
Conditions	mass density [kg/m3]	speed of sound [m/s]	viscosity [mPa·s]
303.15 K	803.1 ± 0.6	1197.4 ± 1.3	3.262 ± 0.073
313.15 K	796.4 ± 0.6	–	2.441 ± 0.055
323.15 K	789.8 ± 0.6	–	1.94 ± 0.045

Conditions	refractive index
[2]	1.4035 ± 0.0005

CC(C)CCO [3-methylbutan-1-ol] + CCCCOCCO
[3], x1 = 1
Conditions	mass density [kg/m3]	speed of sound [m/s]	viscosity [mPa·s]
303.15 K	803.1 ± 0.6	1197.4 ± 1.3	3.262 ± 0.073
313.15 K	796.4 ± 0.6	–	2.441 ± 0.055
323.15 K	789.8 ± 0.6	–	1.94 ± 0.045

Conditions	refractive index
[4], x1 = 1	1.4035 ± 0.0005

CC(C)CCO [3-methylbutan-1-ol] + CCOCCO
[3], x1 = 1
Conditions	mass density [kg/m3]	speed of sound [m/s]	viscosity [mPa·s]
303.15 K	803.1 ± 0.6	1197.4 ± 1.3	3.262 ± 0.073
313.15 K	796.4 ± 0.6	–	2.441 ± 0.055
323.15 K	789.8 ± 0.6	–	1.94 ± 0.045

Conditions	refractive index
[4], x1 = 1	1.4035 ± 0.0005

CC(C)CCO [3-methylbutan-1-ol] + COCCO
[3]
Conditions	mass density, 303.15 K [kg/m3]	mass density, 313.15 K [kg/m3]	mass density, 323.15 K [kg/m3]	speed of sound, 303.15 K [m/s]	viscosity, 303.15 K [mPa·s]	viscosity, 313.15 K [mPa·s]	viscosity, 323.15 K [mPa·s]
x1 = 0.0875	938.3 ± 0.6	928.2 ± 0.6	919.8 ± 0.7	1312.1 ± 1.3	1.578 ± 0.037	1.312 ± 0.031	1.111 ± 0.027
x1 = 0.1775	920.5 ± 0.6	910.8 ± 0.6	902.8 ± 0.7	1299.2 ± 1.3	1.611 ± 0.038	1.341 ± 0.032	1.153 ± 0.028
x1 = 0.2701	903.2 ± 0.6	893.9 ± 0.6	885.9 ± 0.7	1287.4 ± 1.3	1.652 ± 0.039	1.376 ± 0.033	1.169 ± 0.028
x1 = 0.3653	886.7 ± 0.6	877.6 ± 0.6	870 ± 0.7	1274.8 ± 1.3	1.749 ± 0.041	1.432 ± 0.034	1.192 ± 0.029
x1 = 0.4633	870.8 ± 0.6	862.2 ± 0.6	854.7 ± 0.7	1261.2 ± 1.3	1.82 ± 0.042	1.482 ± 0.035	1.224 ± 0.029
x1 = 0.5643	855.8 ± 0.6	847.6 ± 0.6	840.1 ± 0.7	1248.8 ± 1.3	1.934 ± 0.045	1.554 ± 0.036	1.28 ± 0.031
x1 = 0.6683	841.5 ± 0.6	833.6 ± 0.6	826.3 ± 0.6	1235.7 ± 1.3	2.119 ± 0.049	1.667 ± 0.039	1.355 ± 0.032
x1 = 0.7754	827.8 ± 0.6	820.5 ± 0.6	813.2 ± 0.6	1223.3 ± 1.3	2.354 ± 0.053	1.834 ± 0.043	1.481 ± 0.035
x1 = 0.886	815.1 ± 0.6	808.1 ± 0.6	801.1 ± 0.6	1210.5 ± 1.3	2.715 ± 0.061	2.06 ± 0.047	1.671 ± 0.039
x1 = 1	803.1 ± 0.6	796.4 ± 0.6	789.8 ± 0.6	1197.4 ± 1.3	3.262 ± 0.073	2.441 ± 0.055	1.94 ± 0.045

[4]
Conditions	refractive index
x1 = 0.0875	1.3988 ± 0.0005
x1 = 0.1775	1.3993 ± 0.0005
x1 = 0.2701	1.3999 ± 0.0005
x1 = 0.3653	1.4004 ± 0.0005
x1 = 0.4633	1.4009 ± 0.0005
x1 = 0.5643	1.4014 ± 0.0005
x1 = 0.6683	1.402 ± 0.0005
x1 = 0.7754	1.4025 ± 0.0005
x1 = 0.886	1.403 ± 0.0005
x1 = 1	1.4035 ± 0.0005
